Measured values: PubChem BioAssay AID342 (DTP/NCI, 2004)
“And” between values parts separate entries of the source, which are not always exact repeats. Equal values may be shown once.

System: Swiss mice, Sarcoma 180 sc, mean tumor weight T/C
Assay: NCI In Vivo Anticancer Drug Screen. Data for tumor model Sarcoma 180 (subcutaneous) in Swiss mice
Conditions: endpoint: mean tumor weight, higher = larger tumour
Protocol: The antitumor activity of compounds was measured in mice bearing transplantable tumors. Survival or tumor size were measured and the results are expressed as the measurement made in the treated group (T) divided by the measurement made in the vehicle treated control group (C). The tumor model used in this assay is Sarcoma 180 (subcutaneous) in Swiss mice

[1] = dose: 62.5 mg/kg/injection, schedule: Q01DX007 (ip), vehicle: saline
[2] = dose: 125.0 mg/kg/injection, schedule: Q01DX007 (ip), vehicle: saline
[3] = dose: 20.0 mg/kg/injection, schedule: Q01DX007 (ip), vehicle: saline
[4] = dose: 40.0 mg/kg/injection, schedule: Q01DX007 (ip), vehicle: saline
[5] = dose: 100.0 mg/kg/injection, schedule: Q01DX007 (ip), vehicle: saline
[6] = dose: 200.0 mg/kg/injection, schedule: Q01DX007 (ip), vehicle: saline

SMILES: C1CCCNCC1
- T/C (dose: 15.5 mg/kg/injection, schedule: Q01DX007 (ip), vehicle: other): 92 % of control
- T/C (dose: 31.0 mg/kg/injection, schedule: Q01DX007 (ip), vehicle: other): 69 % of control
- T/C (dose: 62.5 mg/kg/injection, schedule: Q01DX007 (ip), vehicle: other): 103 % of control
- T/C (dose: 125.0 mg/kg/injection, schedule: Q01DX007 (ip), vehicle: other): 69 % of control
- T/C (dose: 200.0 mg/kg/injection, schedule: Q01DX007 (ip), vehicle: other): 69 % of control

SMILES: COc1cccc2c1C(=O)c1c(O)c3c(c(O)c1C2=O)C[C@@](O)(C(C)=O)C[C@@H]3OC1CC(N)C(O)C(C)O1 (some centres undefined)
- T/C (dose: 1.0 mg/kg/injection, schedule: Q01DX007 (sc), vehicle: steriod suspending solution): 86 % of control
- T/C (dose: 5.0 mg/kg/injection, schedule: Q01DX007 (sc), vehicle: steriod suspending solution): 54 % of control and 42 % of control

SMILES: O=C(O)Cc1c[nH]c2ccccc12
- T/C (dose: 31.3 mg/kg/injection, schedule: Q01DX007 (ip), vehicle: saline): 64 % of control
- T/C [1]: 71 % of control
- T/C [2]: 52 % of control
- T/C (dose: 250.0 mg/kg/injection, schedule: Q01DX007 (ip), vehicle: saline): 95 % of control

SMILES: CS(=O)(=O)OCC#CCOS(C)(=O)=O
- T/C (dose: 10.0 mg/kg/injection, schedule: Q01DX007 (ip), vehicle: saline): 99 % of control
- T/C [3]: 84 % of control
- T/C [4]: 104 % of control

SMILES: CC(O)C(NCNC(=O)C1=C(O)C2(O)C(=O)C3=C(O)c4c(O)cccc4C(C)(O)C3CC2C(N(C)C)C1=O)C(=O)O (centres undefined)
- T/C (dose: 250.0 mg/kg/injection, schedule: Q#A X014 (ip), vehicle: saline): 44 % of control and 46 % of control

SMILES: CCOC(=O)CCCc1ccc(N=NN(C)C)cc1
- T/C [3]: 99 % of control
- T/C (dose: 30.0 mg/kg/injection, schedule: Q01DX007 (ip), vehicle: saline): 69 % of control
- T/C [4]: 63 % of control
- T/C (dose: 60.0 mg/kg/injection, schedule: Q01DX007 (ip), vehicle: saline): 68 % of control
- T/C (dose: 75.0 mg/kg/injection, schedule: Q01DX007 (ip), vehicle: saline): 38 % of control
- T/C [5]: 44 % of control
- T/C (dose: 150.0 mg/kg/injection, schedule: Q01DX007 (ip), vehicle: saline): 31 % of control
- T/C [6]: 12 % of control

SMILES: CCCCn1cnc2c(=S)nc[nH]c21
- T/C (dose: 12.5 mg/kg/injection, schedule: Q01DX007 (ip), vehicle: carboxymethylcellulose (CMC)): 77 % of control
- T/C (dose: 25.0 mg/kg/injection, schedule: Q01DX007 (ip), vehicle: carboxymethylcellulose (CMC)): 53 % of control
- T/C (dose: 50.0 mg/kg/injection, schedule: Q01DX007 (ip), vehicle: carboxymethylcellulose (CMC)): 63 % of control
- T/C (dose: 100.0 mg/kg/injection, schedule: Q01DX007 (ip), vehicle: carboxymethylcellulose (CMC)): 29 % of control

SMILES: Cc1ccc(S(=O)(=O)N=S2CCCC2)cc1
- T/C (dose: 111.0 mg/kg/injection, schedule: Q#A X014 (ip), vehicle: water): 90 % of control
- T/C (dose: 166.5 mg/kg/injection, schedule: Q#A X014 (ip), vehicle: water): 107 % of control
- T/C (dose: 250.0 mg/kg/injection, schedule: Q#A X014 (ip), vehicle: water): 91 % of control
- T/C (dose: 375.0 mg/kg/injection, schedule: Q#A X014 (ip), vehicle: water): 66 % of control

SMILES: CC(C)COC(=O)C1(N)CCCC1
- T/C (dose: 90.0 mg/kg/injection, schedule: Q01DX007 (ip), vehicle: carboxymethylcellulose (CMC)): 80 % of control
- T/C (dose: 135.0 mg/kg/injection, schedule: Q01DX007 (ip), vehicle: carboxymethylcellulose (CMC)): 44 % of control
- T/C (dose: 188.0 mg/kg/injection, schedule: Q01DX007 (ip), vehicle: saline): 14 % of control
- T/C (dose: 202.0 mg/kg/injection, schedule: Q01DX007 (ip), vehicle: carboxymethylcellulose (CMC)): 49 % of control
- T/C (dose: 303.0 mg/kg/injection, schedule: Q01DX007 (ip), vehicle: carboxymethylcellulose (CMC)): 18 % of control

SMILES: C[C@H](N)C(=O)N[C@@H]1[C@H]2C(=C(O)C[C@@H](O)[C@@H]2O)C(=O)O[C@@H]1C
- T/C (dose: 250.0 mg/kg/injection, schedule: Q01DX007 (ip), vehicle: carboxymethylcellulose (CMC)): 66 % of control
- T/C (dose: 500.0 mg/kg/injection, schedule: Q01DX007 (ip), vehicle: carboxymethylcellulose (CMC)): 42 % of control
- T/C (dose: 1000.0 mg/kg/injection, schedule: Q01DX007 (ip), vehicle: carboxymethylcellulose (CMC)): 12 % of control

SMILES: CN(C)c1ccc(C(C#N)C(C#N)c2ccccc2)cc1 (centres undefined)
- T/C (dose: 8.85 mg/kg/injection, schedule: Q#A X014 (ip), vehicle: methylcellulose (MC)): 69 % of control and 84 % of control
- T/C (dose: 26.6 mg/kg/injection, schedule: Q#A X014 (ip), vehicle: methylcellulose (MC)): 4 % of control
- T/C (dose: 40.0 mg/kg/injection, schedule: Q#A X014 (ip), vehicle: methylcellulose (MC)): 56 % of control

SMILES: COC(=O)c1[nH]c(=O)[nH]c(=O)c1F
- T/C (dose: 4.5 mg/kg/injection, schedule: Q01DX007 (ip), vehicle: carboxymethylcellulose (CMC)): 78 % of control
- T/C (dose: 9.0 mg/kg/injection, schedule: Q01DX007 (ip), vehicle: carboxymethylcellulose (CMC)): 44 % of control and 55 % of control
- T/C (dose: 14.0 mg/kg/injection, schedule: Q01DX007 (ip), vehicle: carboxymethylcellulose (CMC)): 39 % of control and 51 % of control and 54 % of control
- T/C (dose: 21.0 mg/kg/injection, schedule: Q01DX007 (ip), vehicle: carboxymethylcellulose (CMC)): 26 % of control
- T/C (dose: 31.0 mg/kg/injection, schedule: Q01DX007 (ip), vehicle: carboxymethylcellulose (CMC)): 10 % of control and 14 % of control
- T/C (dose: 47.0 mg/kg/injection, schedule: Q01DX007 (ip), vehicle: carboxymethylcellulose (CMC)): 5 % of control and 7 % of control and 12 % of control

SMILES: O=C(O)C(=O)O.[U]
- T/C (dose: 1.5 mg/kg/injection, schedule: Q01DX007 (ip), vehicle: saline): 85 % of control
- T/C (dose: 3.0 mg/kg/injection, schedule: Q01DX007 (ip), vehicle: saline): 79 % of control
- T/C (dose: 6.0 mg/kg/injection, schedule: Q01DX007 (ip), vehicle: saline): 82 % of control
- T/C (dose: 18.5 mg/kg/injection, schedule: Q01DX007 (ip), vehicle: saline): 32 % of control
- T/C (dose: 27.8 mg/kg/injection, schedule: Q01DX007 (ip), vehicle: saline): 33 % of control and 42 % of control
- T/C (dose: 41.7 mg/kg/injection, schedule: Q01DX007 (ip), vehicle: saline): 41 % of control
- T/C [1]: 35 % of control
- T/C (dose: 93.8 mg/kg/injection, schedule: Q01DX007 (ip), vehicle: saline): 39 % of control

SMILES: CO[C@H]1CC[C@@]2(C)C(=CC[C@@H]3[C@@H]2CC[C@]2(C)C(=O)C(=O)C[C@@H]32)C1
- T/C (dose: 22.0 mg/kg/injection, schedule: Q01DX007 (sc), vehicle: steriod suspending solution): 154 % of control
- T/C (dose: 33.0 mg/kg/injection, schedule: Q01DX007 (sc), vehicle: steriod suspending solution): 74 % of control

SMILES: NC1(C(=O)O)CCCC1
- T/C (dose: 4.62 mg/kg/injection, schedule: Q#A X014 (ip), vehicle: carboxymethylcellulose (CMC)): 86 % of control
- T/C (dose: 6.25 mg/kg/injection, schedule: Q#A X014 (ip), vehicle: carboxymethylcellulose (CMC)): 72 % of control
- T/C (dose: 9.25 mg/kg/injection, schedule: Q#A X014 (ip), vehicle: carboxymethylcellulose (CMC)): 101 % of control
- T/C (dose: 12.5 mg/kg/injection, schedule: Q#A X014 (ip), vehicle: carboxymethylcellulose (CMC)): 101 % of control
- T/C (dose: 15.0 mg/kg/injection, schedule: Q01DX007 (ip), vehicle: water): 75 % of control
- T/C (dose: 18.5 mg/kg/injection, schedule: Q#A X014 (ip), vehicle: carboxymethylcellulose (CMC)): 77 % of control
- T/C (dose: 25.0 mg/kg/injection, schedule: Q01DX007 (ip), vehicle: saline): 75 % of control
- T/C (dose: 25.0 mg/kg/injection, schedule: Q#A X014 (ip), vehicle: carboxymethylcellulose (CMC)): 75 % of control
- T/C (dose: 30.0 mg/kg/injection, schedule: Q01DX007 (ip), vehicle: water): 78 % of control
- T/C (dose: 33.0 mg/kg/injection, schedule: Q#A X014 (ip), vehicle: saline): 56 % of control
- T/C (dose: 37.0 mg/kg/injection, schedule: Q#A X014 (ip), vehicle: carboxymethylcellulose (CMC)): 50 % of control
- T/C (dose: 50.0 mg/kg/injection, schedule: Q01DX007 (ip), vehicle: saline): 64 % of control
- T/C (dose: 50.0 mg/kg/injection, schedule: Q#A X014 (ip), vehicle: carboxymethylcellulose (CMC)): 35 % of control
- T/C (dose: 50.0 mg/kg/injection, schedule: Q#A X014 (ip), vehicle: saline): 44 % of control
- T/C (dose: 60.0 mg/kg/injection, schedule: Q01DX007 (ip), vehicle: water): 35 % of control
- T/C (dose: 62.0 mg/kg/injection, schedule: Q01DX007 (ip), vehicle: saline): 61 % of control
- T/C (dose: 75.0 mg/kg/injection, schedule: Q#A X014 (ip), vehicle: saline): 23 % of control
- T/C [5]: 47 % of control
- T/C (dose: 120.0 mg/kg/injection, schedule: Q01DX007 (ip), vehicle: water): 22 % of control
- T/C [2]: 30 % of control
- T/C [6]: 22 % of control
